Results taken from patent publication US12239661B2, “Methods and compositions for treating undesired implanted tissue filler” (priority 2019, dated 2025).

Tests used:
[1] = Electron microscopy (SEM) of filler particles isolated from test sites (Example 1)
Experimental: EM analysis is used, for example, to analyze morphology and the particle size distribution of Calcium Hydroxyapatite (CaHA) particles in tissue integrated particles. […] The biopsy material underwent an enzymatic digestion with protease (Trypsin without EDTA, for […], at 37° C.) after fixation in 10% neutral buffered formalin (NBF). Digested sample was centrifuged, and microscopy samples of the supernatant as well as the pellet were prepared and subjected to EM analysis at room temperature.
Samples were analyzed using a Scanning Electron Microscope (SEM) (Phenom Pure G3, ThermoFisher, with Phenom Pro Suite application system, ImageJ (version 1.51j8) software and OriginPro 2018G (64-bit) SR1 b9.5.1.195 software for analysis and data processing). To evaluate the changes in CaHA microparticle characteristics the samples were analyzed with the Scanning Electron Microscopy (SEM) and evaluated for morphology as well as for the size and shape of the material. Statistical analysis of particle size distribution (PSD) would show changes of the material.
SEM images were taken from three fractions per sample to determine the particle- and volume-weighted size distributions. Up to 400 SEM images per fraction were taken at a magnification of ×500 and further processed by automated image analyzing software ImageJ (version 1.51j8). Image processing took place for every fraction image to determine selected parameters. e.g., Feret diameter and aspect ratio (D-ratio).

[2] = Semi-quantitative histopathologic analysis of injection sites (Example 1)
Experimental: After complete fixation in 10% NBF and micro-CT analysis, the 30 test sites and the TO site, were cut into five blocks. The blocks were decalcified for 48 hours with formic acid and then dehydrated in alcohol solutions of increasing concentration, cleared in xylene and embedded in paraffin. […] Finally, the blocks were placed in HCl for 15 min and the blocks could then be cut to obtain slides for analysis.
The section was stained with safranin-hematoxylin-cosin (SHE). The same procedure was used for the preparation of the TO site used for structural characterization and evaluation of the degradation.
Qualitative and semi-quantitative histopathologic evaluation of the local tissue effects and the inflammatory response at injection sites was conducted according using standard methods.
Evaluation of local tissue effects was based on the qualitative and semi-quantitative histopathologic evaluation: mean score comparison of the semi-quantitative parameters and comparison of the qualitative histopathologic findings.

[3] = Experimental: A total of 10 CT-scans were performed at 30 min, 1 h 15 min, 1 h 30 min, 1 h 45 min, 2 h, 3 h, 4 h, 8 h, 1 day (24 h) and 7 days after injections of the dermal filler.
The X-ray computed tomography (CT) acquisitions were performed with the Computed Tomography Scanner BrightSpeed 16 (General Electric). In order to measure the volume, the mean density and visualize the 3D (Three-dimensional) shape of the dermal fillers SC injected, in vivo CT-scans were performed 1 h 15 (±5 min), 1 h 30 (±10 min), 1 h 45 (±10 min), 2 h (±10 min), 3 h (±15 min), 4 h (±15 min), 8 h (±30 min), 24 h (Day 1+1 h) and 7 days after the test item injections.
For each CT-scan, the animal was positioned in dorsal recumbency (ventral images) and acquisitions were centered on the injection sites. The parameters of the CT-scan are described in Table 4.
The CT acquisitions were analyzed with Avizo version 9.2.0 software. […] To achieve this goal, the evolution of the following parameters was observed over time: • the volume of each nodule, • the mean density of each nodule, and • the 3D shape of each nodule by visualization on the 3D model of each nodule at each time point. Segmentation
An image segmentation was performed on each CT acquisition using standard reconstruction. First, a manual pre-segmentation was performed around each nodule in order to roughly isolate the voxels corresponding to dermal filler. An interpolation procedure was performed to obtain a contour for each slice and define a Region of Interest (ROI). Second, an automatic segmentation was applied on the ROI previously defined using a global grey level thresholding procedure. The relevant threshold allowing the isolation of the dermal filler products was defined on the basis of the Hounsfield Unit (HU) histogram, following the Otsu method to accurately define the ROI. […] Then, a 3D model of these selected voxels was obtained allowing calculation of the total volume (in mm^3) of each nodule of non-degraded dermal filler.
The volume (in mm^3) of the ROI corresponding to each nodule of dermal filler and the mean density (in HU) of each nodule were calculated at each time point.
In order to assess the evolution over time of the elimination of SC-injected dermal filler, the mean volume±standard deviation (SD) and the average of mean density±SD were calculated for each dermal filler injection of the right and left flank separately at each different time points. The evolution of the mean volumes, the mean volume variations and the average of the mean densities of each dermal filler were calculated.

[4] = day 7 after injection; 1.5 mL into 0.5 mL filler site; vs untreated filler
[5] = particle size distribution by EM, day 7

O=S([O-])([O-])=S.[Na+].[Na+] [STS, sodium thiosulfate]
particle degradation (change in particle size or surfaces) by EM ([1]; day 7): no indication of particle degradation | Mean diameter ([1]; filler particles by EM, seven days after filler injection): 29.2 μm | 25-45 μm [1, 5]: 93.1 wt % | <25 μm [1, 5]: 1.7 wt % | >45 μm [1, 5]: 5.2 wt % | D-ratio ([1]; shape index, 1=round, EM, day 7): 0.8 | appearance of filler in histology slices ([2]; SHE stain, vs Saline treatment or untreated filler): more dispersed (diluted) appearance of filler | AM Degradation ([2]; mean score, day 7): 1.8 | Cell or Tissue Degeneration ([2]; mean score, day 7): 0.0 | Encapsulation ([2]; mean score, day 7): 0.0 | Fatty Infiltrate ([2]; mean score, day 7): 0.0 | Fibrin ([2]; mean score, day 7): 2.4 | Fibroblasts ([2]; mean score, day 7): 2.0 | Fibrosis ([2]; mean score, day 7): 0.0 | Giant Cells ([2]; mean score, day 7): 1.4 | Hemorrhage ([2]; mean score, day 7): 2.1 | Lymphocytes ([2]; mean score, day 7): 1.1 | Macrophages ([2]; mean score, day 7): 2.0 | Necrosis ([2]; mean score, day 7): 1.2 | Neovascularization ([2]; mean score, day 7): 1.0 | Plasma Cells ([2]; mean score, day 7): 0.0 | Polymorphonuclear Cells ([2]; mean score, day 7): 1.1 | Tissue Ingrowth ([2]; mean score, day 7): 2.5 | Tissue Integration ([2]; mean score, day 7): 2.5 | fibrin content, hemorrhage and necrosis by histopathology ([2]; seven days): increased fibrin content, hemorrhage and necrosis | inflammation by histopathology ([2]; seven days): decreased inflammation (macrophages, giant cells) | amount of filler by histopathology ([2]; seven days, vs Saline treatment and untreated injections): decreased amount of filler | Radiesse+STS high volume (HU 250-infinity) vs untreated filler by CT ([3]; 90 minutes after injection): very modest temporary increase | Radiesse+STS high density vs untreated filler by CT ([3]; day 7): strong trend for a decrease | filler volume×density/1000 (filler content) in Radiesse+STS high fraction ([3]; day 7): significant decrease of filler | highest HU values of voxel frequency trace ([3]; day 7, untreated filler 450-570 HU): 250-400 HU | number of voxels at 750 HU ([3]; day 7, untreated filler c.a. 70): ~40 voxels | Radiesse-STS (low) volume (0 to 250 HU) by CT ([3]; diluted/dispersed fraction over time): increases with the time between 120 and 240 minutes | effect on dermal filler volume as measured by micro-CT [4]: ≤ 10%
